Source: ChEMBL document CHEMBL3596104, “Covalent modifier-type aggregation inhibitor of amyloid-β based on a cyclo-KLVFF motif” (Bioorg Med Chem Lett, 2015)
Calls of active or inactive are those of the source. The calls are words filed in the database; no cut-off is given here. Starred links: 1 amine or outer side, 2 acyl side, 3 side chain; linkers in the order of their positions; H or OH if unused. Non-standard residues stand in square brackets, D forms with d. Residues, ends and D or L forms follow the SMILES beside them. Phe(4-CF3-diazirinyl) = N[C@@H](Cc1ccc(C2(C(F)(F)F)N=N2)cc1)C(=O)O; X1 = O=C([C@H](Cc1ccc(C(O)C(F)(F)F)cc1)N[*:1])[*:2]; Dip = N[C@H](C(=O)O)C(c1ccccc1)c1ccccc1

Legend:
[1] = target: Amyloid-beta precursor protein (Homo sapiens) (UniProt P05067); assay: Binding affinity to amyloid beta (1 to 42) (unknown origin) assessed as intensity of peak for compound-amyloid beta (1 to 16) adduct at 200 uM incubated for 10 mins irradiated with UV light for 10 mins by MALDI-TOF-MS method
Amyloid-beta precursor protein (Homo sapiens), sequence (P05067 whole entry): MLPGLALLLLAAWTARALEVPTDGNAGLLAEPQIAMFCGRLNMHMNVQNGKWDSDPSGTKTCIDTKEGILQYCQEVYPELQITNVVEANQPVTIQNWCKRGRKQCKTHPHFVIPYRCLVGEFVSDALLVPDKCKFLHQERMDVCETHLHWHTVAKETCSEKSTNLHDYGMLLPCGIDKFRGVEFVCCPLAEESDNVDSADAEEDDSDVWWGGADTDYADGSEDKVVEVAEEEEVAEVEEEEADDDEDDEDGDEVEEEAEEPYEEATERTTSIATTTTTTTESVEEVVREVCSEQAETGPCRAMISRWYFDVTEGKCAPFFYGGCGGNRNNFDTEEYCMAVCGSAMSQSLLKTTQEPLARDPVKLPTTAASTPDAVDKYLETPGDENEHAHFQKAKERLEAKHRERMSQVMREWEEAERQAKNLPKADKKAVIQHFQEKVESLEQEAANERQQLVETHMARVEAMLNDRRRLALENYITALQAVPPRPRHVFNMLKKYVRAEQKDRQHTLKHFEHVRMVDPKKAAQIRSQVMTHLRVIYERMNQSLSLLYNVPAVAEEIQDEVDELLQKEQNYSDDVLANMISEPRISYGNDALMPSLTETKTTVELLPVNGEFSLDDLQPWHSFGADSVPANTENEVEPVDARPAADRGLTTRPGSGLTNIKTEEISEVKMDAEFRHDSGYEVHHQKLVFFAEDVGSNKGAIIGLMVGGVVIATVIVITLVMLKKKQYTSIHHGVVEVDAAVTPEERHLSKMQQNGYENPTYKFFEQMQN

[2] = target: Amyloid-beta precursor protein (Homo sapiens) (UniProt P05067); assay: Binding affinity to amyloid beta (1 to 42) (unknown origin) assessed as fluorescence intensity at 50 uM by Thioflavin-T fluorescence assay (reference value: 100%)
[3] = target: T1, Angiotensinogen (Homo sapiens) (UniProt P01019); assay: Binding affinity to angiotensin-4 (unknown origin) at 200 uM incubated for 2 hrs irradiated with UV light for 10 mins by MALDI-TOF-MS method
T1 sequence (whole entry): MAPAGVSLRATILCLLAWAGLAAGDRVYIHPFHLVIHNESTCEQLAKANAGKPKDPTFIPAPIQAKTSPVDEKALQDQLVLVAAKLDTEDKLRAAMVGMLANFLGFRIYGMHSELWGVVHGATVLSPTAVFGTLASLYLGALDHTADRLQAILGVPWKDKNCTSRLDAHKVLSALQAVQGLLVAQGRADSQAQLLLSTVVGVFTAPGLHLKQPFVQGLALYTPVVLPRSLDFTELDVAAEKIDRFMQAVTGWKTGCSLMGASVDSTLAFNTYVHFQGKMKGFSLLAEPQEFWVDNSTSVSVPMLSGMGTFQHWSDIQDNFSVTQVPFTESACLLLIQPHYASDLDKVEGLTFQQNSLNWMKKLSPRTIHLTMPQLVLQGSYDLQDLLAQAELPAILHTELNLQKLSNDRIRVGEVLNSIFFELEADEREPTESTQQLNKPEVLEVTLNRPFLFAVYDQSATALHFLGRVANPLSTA

[4] = target: Amyloid-beta precursor protein (Homo sapiens) (UniProt P05067); assay: Binding affinity to amyloid beta (1 to 42) (unknown origin) assessed as intensity of peak for compound-amyloid beta (1 to 16) adduct at 200 uM incubated for 20 mins irradiated with UV light for 10 mins by MALDI-TOF-MS method (reference value: 10%)
[5] = target: Amyloid-beta precursor protein (Homo sapiens) (UniProt P05067); assay: Binding affinity to amyloid beta (1 to 42) (unknown origin) assessed as intensity of peak for compound-amyloid beta (1 to 16) adduct at 200 uM incubated for 60 mins irradiated with UV light for 10 mins by MALDI-TOF-MS method (reference value: 10%)
[6] = target: Amyloid-beta precursor protein (Homo sapiens) (UniProt P05067); assay: Binding affinity to amyloid beta (1 to 42) (unknown origin) assessed as intensity of peak for compound-amyloid beta (1 to 16) adduct at 200 uM incubated for 120 mins irradiated with UV light for 10 mins by MALDI-TOF-MS method (reference value: 10%)
Insulin (Homo sapiens) = Insulin (Homo sapiens) (UniProt P01308); assay: Binding affinity to human insulin at 200 uM incubated for 2 hrs irradiated with UV light for 10 mins by MALDI-TOF-MS method
Insulin (Homo sapiens), sequence (P01308 whole entry): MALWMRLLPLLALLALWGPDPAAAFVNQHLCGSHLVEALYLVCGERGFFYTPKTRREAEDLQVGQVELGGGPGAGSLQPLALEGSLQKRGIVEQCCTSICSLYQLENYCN

[7] = target: Amyloid-beta precursor protein (Homo sapiens) (UniProt P05067); assay: Binding affinity to amyloid beta (1 to 42) (unknown origin) assessed as fluorescence intensity at 50 uM irradiated with UV light for 10 mins and measured up to 4 hrs by Thioflavin-T fluorescence assay (reference value: 100%)
[8] = target: Amyloid-beta precursor protein (Homo sapiens) (UniProt P05067); assay: Binding affinity to amyloid beta (1 to 42) (unknown origin) assessed as intensity of peak for compound-amyloid beta (29 to 42) adduct at 200 uM incubated for 20 to 120 mins irradiated with UV light for 10 mins by MALDI-TOF-MS method (reference value: 10%)
[9] = target: Amyloid-beta precursor protein (Homo sapiens) (UniProt P05067); assay: Inhibition of amyloid beta (1 to 42) (unknown origin)-mediated cytotoxicity in rat PC12 cells treated with 20 mins compound pre-treated Abeta (1 to 42) followed by UV irradiation for 10 mins […] and measured after 48 hrs by WST8 assay; assay type: cell-based; settings: PC-12
[10] = target: T2, Neuropeptide S (Homo sapiens) (UniProt P0C0P6); assay: Binding affinity to neuropeptide-S (unknown origin) at 200 uM incubated for 2 hrs irradiated with UV light for 10 mins by MALDI-TOF-MS method
T2 sequence (whole entry): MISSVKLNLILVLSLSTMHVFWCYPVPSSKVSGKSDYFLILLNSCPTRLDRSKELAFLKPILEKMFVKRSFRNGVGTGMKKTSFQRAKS

[11] = target: Amyloid-beta precursor protein (Homo sapiens) (UniProt P05067); assay: Inhibition of fibril formation of amyloid beta (1 to 42) (unknown origin) at 50 uM incubated for 20 mins followed by irradiation with UV light for 10 mins and measured after 12 hrs by atomic force microscopy
[12] = target: Amyloid-beta precursor protein (Homo sapiens) (UniProt P05067); assay: Binding affinity to amyloid beta (1 to 42) (unknown origin) assessed as compound-amyloid beta (4 to 11) adduct formation at Tyr10 residue at 200 uM incubated for 2 hrs irradiated with UV light for 10 mins by LC-MS/MS method
[13] = target: Amyloid-beta precursor protein (Homo sapiens) (UniProt P05067); assay: Binding affinity to amyloid beta (1 to 16) (unknown origin) assessed as intensity of peak for compound-amyloid beta (1 to 16) adduct at 200 uM irradiated with UV light for 10 mins by MALDI-TOF-MS method
[14] = target: Amyloid-beta precursor protein (Homo sapiens) (UniProt P05067); assay: Binding affinity to amyloid beta (1 to 42) (unknown origin) assessed as intensity of peak for compound-amyloid beta (17 to 28) adduct at 200 uM incubated for 20 to 120 mins irradiated with UV light for 10 mins by MALDI-TOF-MS method (reference value: 10%)
[15] = target: Amyloid-beta precursor protein (Homo sapiens) (UniProt P05067); assay: Binding affinity to amyloid beta (1 to 42) (unknown origin) assessed as fluorescence intensity at 50 uM irradiated with UV light for 10 mins and measured after 60 mins by Thioflavin-T fluorescence assay (reference value: 100%)
[16] = target: Amyloid-beta precursor protein (Homo sapiens) (UniProt P05067); assay: Inhibition of amyloid beta (1 to 42) (unknown origin)-mediated cytotoxicity in rat PC12 cells treated with 30 mins compound pre-treated Abeta (1 to 42) followed by UV irradiation for 10 mins […] and measured after 48 hrs by WST8 assay; assay type: cell-based; settings: PC-12

Q: For `CC(C)(C)OC(=O)N[C@@H](Cc1ccc(C2(C(F)(F)F)N=N2)cc1)C(=O)O`, which Activity [1] is on record?
A: inactive

Q: How did the Activity [2] turn out when `CC(C)C[C@H]1NC(=O)[C@@H](CCCCN)NC(=O)[C@@H](Cc2ccccc2)NC(=O)[C@@H](C(c2ccccc2)c2ccccc2)NC(=O)[C@@H](C(C)C)NC1=O` was run?
A: 68%

Q: How did the Activity [1] turn out when `C[C@@H]1NC(=O)[C@H](CC(=O)O)NC(=O)[C@H](CCCNC(=N)N)NC(=O)[C@H](Cc2ccc(C3(C(F)(F)F)N=N3)cc2)NC(=O)[C@H](CCC(=O)O)NC1=O` (cyclo(AE[Phe(4-CF3-diazirinyl)]RD)) was run?
A: inactive

Q: How did the Activity [3] turn out when `CC(C)C[C@@H]1NC(=O)[C@H](CCCCN)NC(=O)[C@H](Cc2ccc(C3(C(F)(F)F)N=N3)cc2)NC(=O)[C@H](C(c2ccccc2)c2ccccc2)NC(=O)[C@H](C(C)C)NC1=O` (cyclo([Dip][Phe(4-CF3-diazirinyl)]KLV)) was run?
A: inactive

Q: What about the Activity [4] of the same molecule?
A: 10%

Q: And the Activity [5]?
A: 20%

Q: And the Activity [6]?
A: 36%

Q: What about the Activity (Insulin (Homo sapiens)) of the same molecule?
A: inactive

Q: What about the Activity [7] of the same molecule?
A: 21%

Q: And the Activity [8]?
A: inactive

Q: What about the Activity [2] of the same molecule?
A: 59%

Q: And the inhibition [9]?
A: Dose-dependent effect

Q: What about the Activity [10] of the same molecule?
A: inactive

Q: What about the inhibition [11] of the same molecule?
A: Active

Q: What about the Activity [1] of the same molecule?
A: Active

Q: What about the Activity [12] of the same molecule?
A: Active

Q: What about the Activity [13] of the same molecule?
A: inactive

Q: And the Activity [14]?
A: inactive

Q: Which Activity [15] does the source give for `CC(C)C[C@@H]1NC(=O)[C@H](CCCCN)NC(=O)[C@H](Cc2ccc(C(O)C(F)(F)F)cc2)NC(=O)[C@H](C(c2ccccc2)c2ccccc2)NC(=O)[C@H](C(C)C)NC1=O` (stereo not given in full) (cyclo([Dip][X1]KLV)) here?
A: 21%

Q: What about the inhibition [16] of the same molecule?
A: Dose-dependent effect
